Source: US9944598B2, “Mono- or di-substituted indole derivatives as dengue viral replication inhibitors” (priority 2014, dated 2018)

Columns and labels:
[1] = test system: DENV-2 16681 strain labeled with eGFP; test: DENV-2 antiviral assay (eGFP fluorescence, Vero cells); assay type: cell-based, Dengue virus; settings: DENV-2 16681 eGFP, MOI 0.5, 3 days
Method: The antiviral activity of all the compounds of the invention was tested against DENV-2 16681 strain which was labeled with enhanced green fluorescent protein (eGPF). The culture medium consists of minimal essential medium supplemented with 2% of heat-inactivated fetal calf serum, 0.04% gentamycin (50 mg/mL) and 2 mM of L-glutamine. Vero cells, obtained from ECACC, were suspended in culture medium and 25 μL was added to 384-well plates (2500 cells/well), which already contain the antiviral compounds. Typically, these plates contain a 4-fold serial dilution of 9 dilution steps of the test compound at 200 times the final concentration in 100% DMSO (200 nL). In addition, each compound concentration is tested in quadruplicate (final concentration range: 25 μM-0.00038 μM). Finally, each plate contains wells which are assigned as virus controls (containing cells and virus in the absence of compound), cell controls (containing cells in the absence of virus and compound) and medium controls (containing medium in the absence of cells, virus and compounds). To the wells assigned as medium control, 25 μL of culture medium was added instead of Vero cells. Once the cells were added to the plates, the plates were incubated for 30 minutes at room temperature to allow the cells to distribute evenly within the wells. Next, the plates were incubated in a fully humidified incubator (37° C., 5% CO2) until the next day. Then, DENV-2 strain 16681, labeled with eGFP, was added at a multiplicity of infection (MOI) of 0.5. Therefore, 15 μL of virus suspension was added to all the wells containing test compound and to the wells assigned as virus control. In parallel, 15 μL of culture medium was added to the medium and cell controls. Next, the plates were incubated for 3 days in a fully humidified incubator (37° C., 5% CO2). At the day of the read out, the eGFP fluorescence was measured using an automated fluorescence microscope at 488 nm (blue laser). Using an in-house LIMS system, inhibition dose response curves for each compound were calculated and the half maximal effective concentration (EC50) was determined. Therefore, the percent inhibition (I) for every test concentration is calculated using the following formula: I=100*(ST−SCC)/(SVC−SCC); ST, SCC and SVC are the amount of eGFP signal in the test compound, cell control and virus control wells, respectively. The EC50 represents the concentration of a compound at which the virus replication is inhibited with 50%, as measured by a 50% reduction of the eGFP fluorescent intensity compared to the virus control. The EC50 is calculated using linear interpolation (Table 1).

[2] = test system: DENV-4 strain EDEN (SG/06K2270DK1/2005); test: Tetravalent RT-qPCR assay Protocol A, serotype 4 EDEN; assay type: cell-based; settings: Dengue virus, DENV4, 72 h, RT-qPCR serotype 4 EDEN, Vero cells, 3 days
Method: (§1) The antiviral activity of the compounds of the invention was tested against DENV-1 strain TC974#666 (NCPV), DENV-2 strain 16681, DENV-3 strain H87 (NCPV) and DENV-4 strains H241 (NCPV) and EDEN (SG/06K2270DK1/2005; GenBank accession number QG398256) in a RT-qPCR assay. Therefore, Vero cells were infected with either DENV-1, or -2, or -3, or -4 in the presence or absence of test compounds. At day 3 post-infection, the cells were lysed and cell lysates were used to prepare cDNA of both a viral target (the 3′UTR of DENV; table 2) and a cellular reference gene (β-actin, table 2). Subsequently, a duplex real time PCR was performed on a Lightcycler480 instrument. The generated Cp value is inversely proportional to the amount of RNA expression of these targets. Inhibition of DENV replication by a test compound result in a shift of Cp's for the 3′UTR gene. On the other hand, if a test compound is toxic to the cells, a similar effect on β-actin expression will be observed. The comparative ΔΔCp method is used to calculate EC50, which is based on the relative gene expression of the target gene (3′UTR) normalized with the cellular housekeeping gene (β-actin). In addition, CC50 values were determined based on the Cp values acquired for the housekeeping gene β-actin.
(§2) The culture medium consisted of minimal essential medium supplemented with 2% of heat-inactivated fetal calf serum, 0.04% gentamycin (50 mg/mL) and 2 mM of L-glutamine. Vero cells, obtained from ECACC, were suspended in culture medium and 75 μL/well was added in 96-well plates (10000 cells/well), which already contain the antiviral compounds. Typically, these plates contain a 4-fold serial dilution of 9 dilution steps of the test compound at 200 times the final concentration in 100% DMSO (500 nL; final concentration range: 25 μM-0.00038 μM). In addition, each plate contains wells which are assigned as virus controls (containing cells and virus in the absence of compound) and cell controls (containing cells in the absence of virus and compound). Once the cells were added in the plates, the plates were incubated in a fully humidified incubator (37° C., 5% CO2) until the next day. Then, DENV-1 strain TC974#666, DENV-2 strain 16681, DENV-3 strain H87 or DENV-4 strains H241 or EDEN were added. […] In parallel, 25 μL of culture medium was added to the cell controls. Next, the plates were incubated for 3 days in a fully humidified incubator (37° C., 5% CO2). After 3 days, the supernatant was removed from the wells and the cells were washed twice with ice-cold PBS (˜100 μL). The cell pellets within the 96-well plates were stored at −80° C. for at least 1 day. Next, RNA was extracted using the Cells-to-CT™ lysis kit, according to the manufacture's guideline (Applied Biosystems). The cell lysates can be stored at −80° C. or immediately used in the reverse transcription step.
(§3) In preparation of the reverse transcription step, mix A (table 3A) was prepared and 7.57 μL/well was dispensed in a 96-well plate. After addition of 5 μL of the cell lysates, a five minute denaturation step at 75° C. was performed (table 3B). Afterwards, 7.43 μL of mix B was added (table 3C) and the reverse transcription step was initiated (table 3D) to generate cDNA.
(§4) Finally, a RT-qPCR mix was prepared, mix C (table 4A), dispensed in 96-well LightCycler qPCR plates to which 3 μL of cDNA was added and the qPCR was performed according to the conditions in table 4B on a LightCycler 480.
(§5) Using the LightCycler software and an in-house LIMS system, dose response curves for each compound were calculated and the half maximal effective concentration (EC50) and the half maximal cytotoxic concentration (CC50) were determined (Tables 6-9).

DENV-2 strain 16681 = test: Tetravalent RT-qPCR assay Protocol A, serotype 2; assay type: cell-based; settings: Dengue virus, DENV2, 72 h, RT-qPCR serotype 2 16681, Vero cells, 3 days
Method: as §1, §2, §3, §4, §5

| Compound | EC50 [1] [nM] | EC50 [2] [nM] | EC50 (DENV-2 strain 16681) [nM] |
| --- | --- | --- | --- |
| COc1cc(NC(C(=O)c2c[nH]c3c(C)cc(F)cc23)c2ccc(Cl)cc2OC)cc(OCCO)c1 (single isomer, unassigned) [Compound 8A, 2-(4-chloro-2-methoxyphenyl)-1-(5-fluoro-7-methyl-1H-indol-3-yl)-2-((3-(2-hydroxyethoxy)-5-methoxyphenyl)amino)ethanone] | 1.2 | 6.5 | 1.2 |
| COc1cc(NC(C(=O)c2c[nH]c3cc(Cl)ccc23)c2ccc(Cl)cc2OC)cc(OCCO)c1 (single isomer, unassigned) [Compound 4A, 1-(6-chloro-1H-indol-3-yl)-2-(4-chloro-2-methoxyphenyl)-2-((3-(2-hydroxyethoxy)-5-methoxyphenyl)amino)ethanone] | 0.7 | 5.2 | 0.44 |
| COc1cc(NC(C(=O)c2c[nH]c3c(F)c(F)ccc23)c2ccc(Cl)cc2OC)cc(OCCO)c1 (single isomer, unassigned) [Compound 11B, 2-(4-chloro-2-methoxyphenyl)-1-(6,7-difluoro-1H-indol-3-yl)-2-((3-(2-hydroxyethoxy)-5-methoxyphenyl)amino)ethanone] | 1.2 | 9.8 | 1 |
| COc1cc(NC(C(=O)c2c[nH]c3cc(OC)c(C)cc23)c2ccc(Cl)cc2OC)cc(OCCO)c1 (single isomer, unassigned) [Compound 6A, 2-(4-chloro-2-methoxyphenyl)-2-((3-(2-hydroxyethoxy)-5-methoxyphenyl)amino)-1-(6-methoxy-5-methyl-1H-indol-3-yl)ethanone] | 0.82 | 2.9 | 0.54 |
| COc1cc(NC(C(=O)c2c[nH]c3cc(OC)ccc23)c2ccc(Cl)cc2OC)cc(OCCO)c1 (single isomer, unassigned) [Compound 5A, 2-(4-chloro-2-methoxyphenyl)-2-((3-(2-hydroxyethoxy)-5-methoxyphenyl)amino)-1-(6-methoxy-1H-indol-3-yl)ethanone] | 0.84 | 4.6 | 0.5 |
| COc1cc(NC(C(=O)c2c[nH]c3cc(OC)c(F)cc23)c2ccc(Cl)cc2OC)cc(OCCO)c1 (single isomer, unassigned) [Compound 7A, 2-(4-chloro-2-methoxyphenyl)-1-(5-fluoro-6-methoxy-1H-indol-3-yl)-2-((3-(2-hydroxyethoxy)-5-methoxyphenyl)amino)ethanone] | 1.1 | 6.6 | 0.91 |
| COc1cc(NC(C(=O)c2c[nH]c3cc(F)c(F)cc23)c2ccc(Cl)cc2OC)cc(OCCO)c1 (single isomer, unassigned) [Compound 9A, 2-(4-chloro-2-methoxyphenyl)-1-(5,6-difluoro-1H-indol-3-yl)-2-((3-(2-hydroxyethoxy)-5-methoxyphenyl)amino)ethanone] |  | 4.7 | 0.79 |
| COc1cc(NC(C(=O)c2c[nH]c3c(C)c(Cl)ccc23)c2ccc(Cl)cc2OC)cc(OCCO)c1 (single isomer, unassigned) [Compound 3A, 2-(4-chloro-2-methoxyphenyl)-1-(6-chloro-7-methyl-1H-indol-3-yl)-2-((3-(2-hydroxyethoxy)-5-methoxyphenyl)amino)ethanone] | 0.34 | 2.9 | 0.24 |
| COc1cc(NC(C(=O)c2c[nH]c3c(C)c(F)ccc23)c2ccc(Cl)cc2OC)cc(OCCO)c1 (single isomer, unassigned) [Compound 2A, 2-(4-chloro-2-methoxyphenyl)-1-(6-fluoro-7-methyl-1H-indol-3-yl)-2-((3-(2-hydroxyethoxy)-5-methoxyphenyl)amino)ethanone] | 0.81 | 4.3 | 0.85 |
| COc1cc(NC(C(=O)c2c[nH]c3cc(F)ccc23)c2ccc(Cl)cc2OC)cc(OCCO)c1 (single isomer, unassigned) [Compound 1A, 2-(4-chloro-2-methoxyphenyl)-1-(6-fluoro-1H-indol-3-yl)-2-((3-(2-hydroxyethoxy)-5-methoxyphenyl)amino)ethanone] | 0.81 | 6.2 | 1.1 |
| COc1cc(NC(C(=O)c2c[nH]c3c(F)cc(C)cc23)c2ccc(Cl)cc2OC)cc(OCCO)c1 (single isomer, unassigned) [Compound 10A, 2-(4-chloro-2-methoxyphenyl)-1-(7-fluoro-5-methyl-1H-indol-3-yl)-2-((3-(2-hydroxyethoxy)-5-methoxyphenyl)amino)ethanone] | 3.2 | 8.6 | 3.2 |
